Experiment [1] relates to washed platelets. The experiment can be described thus: 14C-arachidonic acid metabolism by washed platelets (TLC). Type of experiment: cell-based, human. As to the method:
Washed platelets (400 μl) prepared as above were placed in a cuvette. Either vehicle (50 μl), isoquinoline test compound, or indomethacin was then added. After incubation for 55 seconds at 37° C., 50 μl of calcium chloride (5 mM) was added and, at 60 seconds, 50 μl of ^14 C-arachidonic acid (0.1 μCi, 0.4 mM) was added. Four minutes later, 80 μl of 10% formic acid was added to stop the reaction. The contents were then poured into 6.5 ml of ice-cold ethyl acetate and the cuvette was further rinsed twice with 1 ml of ethyl acetate. The samples were subsequently extracted as previously described. The dried extract was reconstituted in chloroform:methanol (2:1) and spotted onto TLC plates. PGE2 PGF2α, TXB2 (20 μg of each) were spotted as the reference. The plates were developed in a chloroform:methanol, acetic acid, water (90:8:1:0.8) solution. […] Each plate was visualized with iodine vapor, the Rf s noted and then 1 cm zones scraped and counted in a Beckman Liquid Scintillation spectrometer.

Experiment [2] deals with platelet rich plasma. Nature of the experiment: arachidonic acid induced platelet aggregation in platelet rich plasma (Born aggregometry). Type of experiment: cell-based, human. The method, then: (§1) The specific inhibitory activity of the present compounds can be determined by the following procedures. For platelet aggregation, blood was collected from normal volunteers into sodium citrate (3.8% w/v) 9:1. The indicated volunteers had not ingested aspirin or other non-steroidal anti-inflammatory drugs for at least 7 days. Platelet rich plasma was prepared from the blood by centrifugation at 200×g for 15 minutes. This plasma was centrifuged at 10,000×g for 2 minutes to obtain platelet poor plasma blank. The platelet rich plasma was incubated at 37° C. for 60 seconds prior to addition of vehicle or compound. The platelet rich plasma was then incubated for an additional 60 seconds prior to the addition of arachidonic acid or ADP. Aliquots (50 μl) were removed at 30 and 60 seconds after the addition of arachidonic acid for determination of iTXB2. Platelet aggregation was monitored in a Model 300 Chronolog aggregometer using the method of Born.

In experiment [3] the test system is platelet rich plasma. The experiment can be described thus: ADP induced platelet aggregation in platelet rich plasma (Born aggregometry). It counts as cell-based, human. The method, then:
as §1

Experiment [4] relates to thromboxane synthetase. Nature of the experiment: iTXB2 production by whole blood after intravenous dosing of rats. It counts as in vivo, Sprague-Dawley rats. The settings on record: 30 minutes prior to obtaining blood, female rats. The method, then: Varying doses of the test compound were administered intravenously to female Sprague-Dawley rats weighing between 250-300 g 30 minutes prior to obtaining blood. […] A dose of 10 mg/kg produced approximately a 50% inhibition of iTXB2 production.

Experiment [5] concerns thromboxane synthetase. The experiment can be described thus: iTXB2 produced during arachidonic acid induced platelet aggregation. Type of experiment: cell-based, human. The conditions noted are these: 1 mM. As to the method: as §1
Experiment [6] relates to microphages. The experiment can be described thus: endogenous arachidonic acid metabolism by microphages. It counts as cell-based. The method, then: To establish if the test compound was a selective thromboxane synthetase inhibitor or a fatty acid cyclooxygenase inhibitor, the effects of the isoquinoline on endogenous arachidonic acid metabolism by microphages was assessed. […] The effect on i-6-keto-PGFα levels was variable. At a concentration of 500 μm it inhibited i-6-keto-PGFα formation and at 250 μm it increased its formation. At all other concentrations it had no affect.

Take `COc1ccc2c(c1)c(CC(=O)O)c(C)n2C(=O)c1ccc(Cl)cc1` [indomethacin, reference compound]: the inhibition at 50 µM in experiment [1] (Homo sapiens, Platelet, 4 min, read-out: reduction of metabolism of arachidonic acid compared to controls) came to 78%.
Take `O=C(O)c1ccc(NCc2cncc3ccccc23)cc1` [isoquinoline, 4-[(4-isoquinolinylmethyl)amino]benzoic acid]: the “rate of arachidonic acid induced platelet aggregation” value in experiment [2] (0.5 mM) and in experiment [2] (1 mM) was “significantly inhibited” throughout. The “percent of arachidonic acid converted to PGE2” value in experiment [1] (washed platelets) was “did not affect”. Also, the “percentage of arachidonic acid converted to TXB2” value in experiment [1] (washed platelets) is “reduced”. In addition, the “total amount of arachidonic acid metabolized via the cyclo-oxygenase pathway” value in experiment [1] (washed platelets, versus vehicle controls) is “not different from the vehicle controls”. Further, the “ADP induced platelet aggregation as compared to control” value in experiment [3] (1 mM) is “marked effect”. Also, the inhibition at 1000 µM in experiment [3] (Homo sapiens, Platelet, 1 min, 1000 μM, at 60 seconds, read-out: reduction of ADP aggregation) worked out at 30%. Further, the “inhibition of iTXB2 production” value in experiment [4] (10 mg/kg intravenously) is listed as ~50%. Besides, the “iTXB2 production by whole blood” value in experiment [4] (varying doses intravenously) is given as “dose dependent reduction”. Also, the “amounts of iTXB2 produced during arachidonic acid induced platelet aggregation” value in experiment [5] (30 seconds) and in experiment [5] (60 seconds) was “significantly reduced” throughout. The “basal synthesis of iTXB2 by microphages” value in experiment [6] (10 μM to 1000 μM) is reported as “significantly reduced”. Moreover, the i-6-keto-PGFα formation entry in experiment [6] (250 μm) is “increased”; in experiment [6] (500 μm), “inhibited”; in experiment [6] (all other concentrations), “no affect”. Besides, the iPGE levels result in experiment [6] (at most concentrations) is “significantly increased”. Besides, the “selectivity for thromboxane synthesis” value in experiment [6] (conclusion from iTXB2, iPGE and i-6-keto-PGFα levels) is “appears to selectively inhibit thromboxane synthesis”.
